Holding throughout (experiment): Differential Scanning Fluorimetry (DSF) Tm shift
Type in all cases: binding

The target in assay [1] is SRC Catalytic Domain+SH2+SH3 (Homo sapiens, UniProt P12931). The conditions noted are these: 2 µM protein, 10 µM inhibitor, average of 3 experiments, each in duplicate.
The next assay has as its target T1, FES Catalytic Domain+SH2 (Homo sapiens, UniProt P07332).
T1 construct: for 8, we also made a longer version containing one or more additional domains; His-tag; made in house; host or cells: Escherichia coli
As to conditions: 2 µM protein, 10 µM inhibitor, average of 3 experiments, each in duplicate.

For a further assay, the target named is T2, CHK2 Catalytic Domain (Homo sapiens, UniProt O96017).
T2 construct: For all of them, we expressed and purified the catalytic domain separately; His-tag; made in house; host or cells: Escherichia coli
The conditions noted are these: 2 µM protein, 10 µM inhibitor, average of 3 experiments, each in duplicate.

Another assay concerns the target T3, AKT3 Catalytic Domain (Homo sapiens, UniProt Q9Y243).
T3 construct: AKT3 (Q9Y243); CD; His-tag; made in house; host or cells: Escherichia coli
The conditions noted are these: 2 µM protein, 10 µM inhibitor, average of 3 experiments, each in duplicate.

In another assay the target is T4, CDK2 + Cyclin E (Homo sapiens, UniProt P24941).
T4 construct: CDK2 (P24941); 1–299; His-tag; made in house; host or cells: Escherichia coli
The conditions noted are these: CDK2 + Cyclin E; 2 µM protein, 10 µM inhibitor; average of 3 experiments, each in duplicate.

Assay [2] deals with T5, PAK4 Catalytic Domain+PBD (Homo sapiens, UniProt O96013).
T5 construct: for 8, we also made a longer version containing one or more additional domains; His-tag; made in house; host or cells: Escherichia coli
The conditions noted are these: 2 µM protein, 10 µM inhibitor, average of 3 experiments, each in duplicate.

In a further assay the target is T6, DMPK Catalytic Domain (Homo sapiens, UniProt Q09013).
T6 construct: For all of them, we expressed and purified the catalytic domain separately; His-tag; made in house; host or cells: Escherichia coli
T6 sequence (Q09013 71-339 limits assumed): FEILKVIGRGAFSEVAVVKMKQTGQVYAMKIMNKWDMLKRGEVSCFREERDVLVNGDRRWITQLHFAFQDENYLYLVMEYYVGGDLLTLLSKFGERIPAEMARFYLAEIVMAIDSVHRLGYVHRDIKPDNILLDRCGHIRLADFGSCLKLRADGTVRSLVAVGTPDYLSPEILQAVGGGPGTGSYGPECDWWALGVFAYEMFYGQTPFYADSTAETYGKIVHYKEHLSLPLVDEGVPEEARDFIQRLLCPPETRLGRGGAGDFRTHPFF
The conditions noted are these: 2 µM protein, 10 µM inhibitor, average of 3 experiments, each in duplicate.

Another assay has as its target T7, FAK2 Catalytic Domain (Homo sapiens, UniProt Q14289).
T7 construct: For all of them, we expressed and purified the catalytic domain separately; His-tag; made in house; host or cells: Escherichia coli
The conditions noted are these: 2 µM protein, 10 µM inhibitor, average of 3 experiments, each in duplicate.

The target of the next assay is T8, CDK2 + Cyclin A (Homo sapiens, UniProt P24941).
T8 construct: CDK2 (P24941); 1–299; His-tag; made in house; host or cells: Escherichia coli
The conditions noted are these: CDK2 + Cyclin A; 2 µM protein, 10 µM inhibitor; average of 3 experiments, each in duplicate.

The target of a further assay is T9, PAK4 Catalytic Domain (Homo sapiens, UniProt O96013).
T9 construct: For all of them, we expressed and purified the catalytic domain separately; His-tag; made in house; host or cells: Escherichia coli
As to conditions: 2 µM protein, 10 µM inhibitor, average of 3 experiments, each in duplicate.

In another assay the target is T10, STK3 Catalytic Domain (Homo sapiens, UniProt Q13188).
T10 construct: For all of them, we expressed and purified the catalytic domain separately; His-tag; made in house; host or cells: Escherichia coli
T10 sequence (Q13188 27-278 limits assumed): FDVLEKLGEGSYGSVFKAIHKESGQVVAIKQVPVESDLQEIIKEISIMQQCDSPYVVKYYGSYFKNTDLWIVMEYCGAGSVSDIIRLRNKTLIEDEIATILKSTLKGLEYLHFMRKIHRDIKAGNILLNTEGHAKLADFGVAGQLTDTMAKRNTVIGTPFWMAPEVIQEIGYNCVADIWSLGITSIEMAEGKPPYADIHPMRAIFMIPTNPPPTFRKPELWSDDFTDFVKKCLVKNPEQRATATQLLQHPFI
The conditions noted are these: 2 µM protein, 10 µM inhibitor, average of 3 experiments, each in duplicate.

Another assay addresses T11, PAK7 Catalytic Domain (Homo sapiens, UniProt Q9P286).
T11 construct: For all of them, we expressed and purified the catalytic domain separately; His-tag; made in house; host or cells: Escherichia coli
As to conditions: 2 µM protein, 10 µM inhibitor, average of 3 experiments, each in duplicate.

Assay [3] addresses T12, STK3 Catalytic domain+SARAH (Homo sapiens, UniProt Q13188).
T12 construct: for 8, we also made a longer version containing one or more additional domains; His-tag; made in house; host or cells: Escherichia coli
T12 sequence (Q13188 1-491): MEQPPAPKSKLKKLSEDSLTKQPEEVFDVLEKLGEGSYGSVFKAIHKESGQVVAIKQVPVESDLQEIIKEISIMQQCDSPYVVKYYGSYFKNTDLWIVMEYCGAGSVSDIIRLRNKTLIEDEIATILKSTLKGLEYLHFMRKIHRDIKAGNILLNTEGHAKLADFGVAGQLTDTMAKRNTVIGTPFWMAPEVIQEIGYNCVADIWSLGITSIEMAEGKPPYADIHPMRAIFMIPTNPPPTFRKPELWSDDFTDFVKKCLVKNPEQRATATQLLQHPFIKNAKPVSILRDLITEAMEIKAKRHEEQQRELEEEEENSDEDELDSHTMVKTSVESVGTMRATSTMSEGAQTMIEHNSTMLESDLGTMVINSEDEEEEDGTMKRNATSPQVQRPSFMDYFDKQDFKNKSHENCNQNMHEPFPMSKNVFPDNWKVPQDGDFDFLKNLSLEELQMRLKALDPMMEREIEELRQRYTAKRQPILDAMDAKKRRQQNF
The conditions noted are these: 2 µM protein, 10 µM inhibitor, average of 3 experiments, each in duplicate.

Another assay has as its target SRC Catalytic Domain (Homo sapiens, UniProt P12931). Also noted: For all of them, we expressed and purified the catalytic domain separately; His-tag; made in house; host or cells: Escherichia coli. The conditions noted are these: 2 µM protein, 10 µM inhibitor, average of 3 experiments, each in duplicate.
A further assay deals with T13, FES Catalytic Domain (Homo sapiens, UniProt P07332).
T13 construct: For all of them, we expressed and purified the catalytic domain separately; His-tag; made in house; host or cells: Escherichia coli
The conditions noted are these: 2 µM protein, 10 µM inhibitor, average of 3 experiments, each in duplicate.

The source of these data is publication PMC4051630, “A Comparison of Protein Kinases Inhibitor Screening Methods Using Both Enzymatic Activity and Binding Affinity Determination” (PLoS ONE, 2014).

T7 sequence (Q14289 425-683 limits assumed): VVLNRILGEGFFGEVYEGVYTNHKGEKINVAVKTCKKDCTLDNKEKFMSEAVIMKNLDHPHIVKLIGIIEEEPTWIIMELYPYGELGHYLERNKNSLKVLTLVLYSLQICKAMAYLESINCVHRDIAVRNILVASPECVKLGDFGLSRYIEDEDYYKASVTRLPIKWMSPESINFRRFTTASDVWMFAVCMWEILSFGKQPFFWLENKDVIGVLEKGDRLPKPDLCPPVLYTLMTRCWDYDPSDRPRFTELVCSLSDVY
T9 sequence (O96013 321-572 limits assumed): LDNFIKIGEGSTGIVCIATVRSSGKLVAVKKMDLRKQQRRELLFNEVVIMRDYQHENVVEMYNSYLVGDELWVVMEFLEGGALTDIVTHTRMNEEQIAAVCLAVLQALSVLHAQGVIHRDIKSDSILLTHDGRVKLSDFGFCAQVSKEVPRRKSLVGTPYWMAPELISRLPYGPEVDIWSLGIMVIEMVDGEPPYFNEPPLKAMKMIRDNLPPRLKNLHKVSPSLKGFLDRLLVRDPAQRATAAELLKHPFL
T3 sequence (Q9Y243 122-479): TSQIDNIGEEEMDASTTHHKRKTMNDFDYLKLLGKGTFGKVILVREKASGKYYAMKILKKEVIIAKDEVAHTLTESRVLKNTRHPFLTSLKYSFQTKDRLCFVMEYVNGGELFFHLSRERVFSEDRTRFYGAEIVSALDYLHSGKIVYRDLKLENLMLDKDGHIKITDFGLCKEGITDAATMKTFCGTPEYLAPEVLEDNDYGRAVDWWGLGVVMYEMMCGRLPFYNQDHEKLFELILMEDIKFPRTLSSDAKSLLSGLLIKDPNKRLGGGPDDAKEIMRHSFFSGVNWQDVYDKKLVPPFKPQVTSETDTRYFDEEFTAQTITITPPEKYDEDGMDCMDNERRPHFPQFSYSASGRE
T13 sequence (P07332 561-822 limits assumed): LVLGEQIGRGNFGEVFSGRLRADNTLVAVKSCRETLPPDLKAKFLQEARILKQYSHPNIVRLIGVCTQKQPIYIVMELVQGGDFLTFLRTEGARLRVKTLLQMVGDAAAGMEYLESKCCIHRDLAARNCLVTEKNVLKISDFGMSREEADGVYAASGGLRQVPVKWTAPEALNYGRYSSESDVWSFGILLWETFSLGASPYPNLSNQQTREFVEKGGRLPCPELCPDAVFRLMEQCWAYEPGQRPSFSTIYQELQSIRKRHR
T1 sequence (P07332 448-822 limits assumed): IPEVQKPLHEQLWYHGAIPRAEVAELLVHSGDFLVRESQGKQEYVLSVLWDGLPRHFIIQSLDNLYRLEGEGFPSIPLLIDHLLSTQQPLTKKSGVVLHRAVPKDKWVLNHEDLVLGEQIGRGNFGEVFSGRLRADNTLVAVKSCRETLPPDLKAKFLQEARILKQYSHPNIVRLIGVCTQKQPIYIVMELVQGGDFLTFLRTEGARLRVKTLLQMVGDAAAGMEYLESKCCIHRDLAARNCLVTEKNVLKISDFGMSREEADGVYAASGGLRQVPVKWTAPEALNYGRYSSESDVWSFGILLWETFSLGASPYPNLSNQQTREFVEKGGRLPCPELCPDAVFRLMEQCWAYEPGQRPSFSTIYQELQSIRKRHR
T11 sequence (Q9P286 449-700 limits assumed): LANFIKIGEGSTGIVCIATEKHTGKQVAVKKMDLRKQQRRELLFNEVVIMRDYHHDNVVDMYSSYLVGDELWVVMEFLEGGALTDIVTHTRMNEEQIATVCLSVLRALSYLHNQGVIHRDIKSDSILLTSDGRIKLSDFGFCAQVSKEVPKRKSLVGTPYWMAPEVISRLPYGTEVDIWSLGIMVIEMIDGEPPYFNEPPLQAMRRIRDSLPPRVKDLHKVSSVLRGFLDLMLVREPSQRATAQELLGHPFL
T5 sequence (O96013 whole entry, the tested form may be a part): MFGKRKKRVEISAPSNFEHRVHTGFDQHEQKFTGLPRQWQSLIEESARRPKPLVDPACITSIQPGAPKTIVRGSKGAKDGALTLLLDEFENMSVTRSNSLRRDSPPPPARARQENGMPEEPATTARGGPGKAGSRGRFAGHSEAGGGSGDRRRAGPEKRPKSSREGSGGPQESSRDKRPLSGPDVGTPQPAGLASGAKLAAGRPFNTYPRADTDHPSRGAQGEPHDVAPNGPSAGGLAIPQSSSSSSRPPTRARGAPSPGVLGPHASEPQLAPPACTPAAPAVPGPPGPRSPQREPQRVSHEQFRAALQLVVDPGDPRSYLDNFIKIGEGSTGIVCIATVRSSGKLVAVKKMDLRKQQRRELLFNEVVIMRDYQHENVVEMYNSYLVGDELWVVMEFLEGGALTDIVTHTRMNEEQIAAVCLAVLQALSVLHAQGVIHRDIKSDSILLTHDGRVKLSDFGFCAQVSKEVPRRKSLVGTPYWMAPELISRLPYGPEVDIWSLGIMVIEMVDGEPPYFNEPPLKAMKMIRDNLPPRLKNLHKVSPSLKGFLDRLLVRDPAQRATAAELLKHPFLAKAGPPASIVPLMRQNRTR
Sequence of SRC Catalytic Domain+SH2+SH3 (P12931 84-523 limits assumed): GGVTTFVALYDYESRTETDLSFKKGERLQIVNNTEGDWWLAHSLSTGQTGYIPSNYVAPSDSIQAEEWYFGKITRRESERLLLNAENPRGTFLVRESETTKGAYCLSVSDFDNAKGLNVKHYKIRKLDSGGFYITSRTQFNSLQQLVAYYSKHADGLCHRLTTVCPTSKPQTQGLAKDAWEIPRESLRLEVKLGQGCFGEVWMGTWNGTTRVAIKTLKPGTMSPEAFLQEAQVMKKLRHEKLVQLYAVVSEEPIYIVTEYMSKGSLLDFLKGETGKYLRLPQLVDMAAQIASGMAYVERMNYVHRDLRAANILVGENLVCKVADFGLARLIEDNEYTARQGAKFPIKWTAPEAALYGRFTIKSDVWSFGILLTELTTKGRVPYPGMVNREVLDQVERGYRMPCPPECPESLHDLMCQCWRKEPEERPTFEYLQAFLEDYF
T2 sequence (O96017 220-486 limits assumed): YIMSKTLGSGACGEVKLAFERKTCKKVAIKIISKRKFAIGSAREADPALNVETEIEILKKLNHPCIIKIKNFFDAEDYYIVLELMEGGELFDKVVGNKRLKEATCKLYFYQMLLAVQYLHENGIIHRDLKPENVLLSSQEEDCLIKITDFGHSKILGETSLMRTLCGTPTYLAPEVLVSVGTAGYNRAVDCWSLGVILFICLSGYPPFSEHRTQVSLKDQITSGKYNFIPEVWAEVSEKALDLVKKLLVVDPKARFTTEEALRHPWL
Sequence of SRC Catalytic Domain (P12931 270-523 limits assumed): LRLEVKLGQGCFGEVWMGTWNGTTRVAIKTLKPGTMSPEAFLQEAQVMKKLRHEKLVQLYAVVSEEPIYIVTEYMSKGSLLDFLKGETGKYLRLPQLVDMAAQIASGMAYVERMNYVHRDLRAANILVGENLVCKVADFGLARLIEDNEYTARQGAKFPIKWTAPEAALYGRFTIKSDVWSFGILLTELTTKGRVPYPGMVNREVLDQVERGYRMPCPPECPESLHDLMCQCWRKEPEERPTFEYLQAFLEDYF

On to `O=C1Cc2c([nH]c3ccc([N+](=O)[O-])cc23)-c2ccccc2N1` [Alsterpaullone], for which the “Melting temperature (Tm) shift” value was determined as 0.2 degrees Celcius in assay [1]; 0.1 degrees Celcius on FES Catalytic Domain+SH2; 0.9 degrees Celcius on CHK2 Catalytic Domain; 0.1 degrees Celcius at AKT3 Catalytic Domain; 0.2 degrees Celcius at CDK2 + Cyclin E; 0.3 degrees Celcius in assay [2]. Moreover, the “Melting temperature (Tm) shift” value turned out to be 1.8 degrees Celcius on DMPK Catalytic Domain; 0.4 degrees Celcius at FAK2 Catalytic Domain; 0.4 degrees Celcius on CDK2 + Cyclin A; 0.2 degrees Celcius at PAK4 Catalytic Domain; 0.3 degrees Celcius on STK3 Catalytic Domain; 0.3 degrees Celcius at PAK7 Catalytic Domain. For the same compound, the results for the “Melting temperature (Tm) shift” value (in assay [3]; at SRC Catalytic Domain; on FES Catalytic Domain) were 0.7 degrees Celcius, 0.0 degrees Celcius and 0.3 degrees Celcius, respectively.
With `Nc1cccc(-c2cc3c(Oc4cccc(O)c4)ncnc3[nH]2)c1` [GSK3b Inhibitor XII, TWS119], the “Melting temperature (Tm) shift” value in [1] was 3.1 degrees Celcius; on FES Catalytic Domain+SH2, 2.0 degrees Celcius; at CHK2 Catalytic Domain, 2.1 degrees Celcius; on AKT3 Catalytic Domain, 0.1 degrees Celcius; on CDK2 + Cyclin E, 0.2 degrees Celcius; in [2], 1.5 degrees Celcius. Besides, the “Melting temperature (Tm) shift” value on DMPK Catalytic Domain is 1.2 degrees Celcius; at FAK2 Catalytic Domain, 1.5 degrees Celcius; at CDK2 + Cyclin A, 0.7 degrees Celcius; on PAK4 Catalytic Domain it was 1.3 degrees Celcius; on STK3 Catalytic Domain it was 0.3 degrees Celcius; at PAK7 Catalytic Domain, 1.1 degrees Celcius. Besides, the “Melting temperature (Tm) shift” value in assay [3] was found to be 0.5 degrees Celcius; at SRC Catalytic Domain, 2.6 degrees Celcius; at FES Catalytic Domain, 4.1 degrees Celcius.
As for `Cc1ccc([N+](=O)[O-])cc1S(=O)(=O)N(C)N=Cc1cnc2ccc(Br)cn12.Cl.O.O` [PI 3-Kα Inhibitor VIII], the “Melting temperature (Tm) shift” value in [1] was found to be 0.9 degrees Celcius; at FES Catalytic Domain+SH2, 1.4 degrees Celcius; at CHK2 Catalytic Domain, 2.5 degrees Celcius; at AKT3 Catalytic Domain it was 1.3 degrees Celcius; on CDK2 + Cyclin E, 0.7 degrees Celcius; in [2] it was 2.1 degrees Celcius. Moreover, the “Melting temperature (Tm) shift” value amounted to 3.1 degrees Celcius at DMPK Catalytic Domain; 1.6 degrees Celcius on FAK2 Catalytic Domain; 4.2 degrees Celcius at CDK2 + Cyclin A; 3.0 degrees Celcius on PAK4 Catalytic Domain; 2.7 degrees Celcius on STK3 Catalytic Domain; 1.8 degrees Celcius at PAK7 Catalytic Domain. In addition, the “Melting temperature (Tm) shift” value in assay [3] was 4.2 degrees Celcius; at SRC Catalytic Domain it was 0.7 degrees Celcius; on FES Catalytic Domain it was 3.1 degrees Celcius.
For `Cn1cc(/C=C2\C(=O)Nc3ccc(S(N)(=O)=O)cc32)c2ccccc21` [Syk Inhibitor], the “Melting temperature (Tm) shift” value is listed as 0.2 degrees Celcius in assay [1]; 0.4 degrees Celcius on FES Catalytic Domain+SH2; 5.2 degrees Celcius on CHK2 Catalytic Domain; 0.0 degrees Celcius on AKT3 Catalytic Domain; 0.4 degrees Celcius at CDK2 + Cyclin E; 2.2 degrees Celcius in [2]. Also, the “Melting temperature (Tm) shift” value at DMPK Catalytic Domain came out at 0.9 degrees Celcius; at FAK2 Catalytic Domain, 0.4 degrees Celcius; at CDK2 + Cyclin A it was 0.7 degrees Celcius; on PAK4 Catalytic Domain, 1.7 degrees Celcius; on STK3 Catalytic Domain, 2.0 degrees Celcius; at PAK7 Catalytic Domain it was 0.9 degrees Celcius. Further, the “Melting temperature (Tm) shift” value in assay [3] came out at 2.0 degrees Celcius; on SRC Catalytic Domain it was 0.1 degrees Celcius; on FES Catalytic Domain, 2.0 degrees Celcius.
Take `O=C1NC(=O)C(=Cc2cccc(C(F)(F)F)c2)S1` [PIM1/2 Kinase Inhibitor V]: the “Melting temperature (Tm) shift” value in assay [1] is 0.2 degrees Celcius; at FES Catalytic Domain+SH2 it was 0.4 degrees Celcius; at CHK2 Catalytic Domain, 0.5 degrees Celcius; at AKT3 Catalytic Domain it was 0.1 degrees Celcius; at CDK2 + Cyclin E, 0.2 degrees Celcius; in [2] it was 0.4 degrees Celcius. Also, the “Melting temperature (Tm) shift” value came out at 0.1 degrees Celcius on DMPK Catalytic Domain; 0.2 degrees Celcius at FAK2 Catalytic Domain; 0.3 degrees Celcius on CDK2 + Cyclin A; 0.2 degrees Celcius on PAK4 Catalytic Domain; 0.2 degrees Celcius on STK3 Catalytic Domain; 0.1 degrees Celcius at PAK7 Catalytic Domain. Also, the “Melting temperature (Tm) shift” value in [3] is recorded as 0.4 degrees Celcius; on SRC Catalytic Domain it was 0.1 degrees Celcius; at FES Catalytic Domain, 0.5 degrees Celcius.
On to `Cl.Cl.NCCNc1ncc(C(N)=O)c(Nc2cccc(C(F)(F)F)c2)n1` [Syk Inhibitor II], for which the “Melting temperature (Tm) shift” value in assay [1] is recorded as 0.4 degrees Celcius; at FES Catalytic Domain+SH2 it was 1.3 degrees Celcius; on CHK2 Catalytic Domain it was 4.7 degrees Celcius; on AKT3 Catalytic Domain, 0.0 degrees Celcius; on CDK2 + Cyclin E it was 0.6 degrees Celcius; in assay [2], 4.8 degrees Celcius. Further, the “Melting temperature (Tm) shift” value on DMPK Catalytic Domain came to 0.7 degrees Celcius; at FAK2 Catalytic Domain, 1.9 degrees Celcius; on CDK2 + Cyclin A, 0.5 degrees Celcius; at PAK4 Catalytic Domain, 4.7 degrees Celcius; on STK3 Catalytic Domain, 1.6 degrees Celcius; at PAK7 Catalytic Domain, 5.1 degrees Celcius. The “Melting temperature (Tm) shift” value in assay [3] was 1.3 degrees Celcius; at SRC Catalytic Domain it was 0.1 degrees Celcius; on FES Catalytic Domain it was 3.1 degrees Celcius.
